Experimental data published in the NIST ThermoML archive (doi:10.1021/je301344y).

Details: Fluid (supercritical or subcritical phases), Pulse-echo method

C=CC [propene]
Details	speed of sound [m/s]
240 K, 7107.3 kPa	1153.2
240 K, 8108.1 kPa	1161.6
240 K, 9108.7 kPa	1169.9
240 K, 10109 kPa	1178
240 K, 12611 kPa	1197.8
240 K, 15113 kPa	1216.8
240 K, 17614 kPa	1235.1
240 K, 20116 kPa	1252.7
240 K, 25119 kPa	1286.5
240 K, 30122 kPa	1318.2
240 K, 35126 kPa	1348.3
240 K, 40129 kPa	1377
240 K, 45132 kPa	1404.3
240 K, 50136 kPa	1430.5
240 K, 60144 kPa	1479.9
240.01 K, 1303 kPa	1101.2
240.01 K, 2103.6 kPa	1108.7
240.01 K, 3104.3 kPa	1118
240.01 K, 4105 kPa	1127.1
240.01 K, 5105.7 kPa	1135.9
240.01 K, 6106.4 kPa	1144.7
260 K, 1303.3 kPa	970.62
260 K, 2103.9 kPa	979.88
260 K, 3104.6 kPa	991.17
260 K, 4105.3 kPa	1002.2
260 K, 5106.1 kPa	1012.9
260 K, 6106.6 kPa	1023.3
260 K, 7107.2 kPa	1033.5
260 K, 8107.8 kPa	1043.4
260 K, 9108.2 kPa	1053.1
260 K, 10109 kPa	1062.6
260 K, 12613 kPa	1085.6
260 K, 15114 kPa	1107.5
260 K, 17616 kPa	1128.4
260 K, 20118 kPa	1148.4
260 K, 25121 kPa	1186.3
260 K, 30124 kPa	1221.6
260 K, 35128 kPa	1254.8
260 K, 40131 kPa	1286.2
260 K, 45134 kPa	1316
260 K, 50138 kPa	1344.4
260 K, 60145 kPa	1397.5
260 K, 70152 kPa	1446.7
260 K, 80158 kPa	1492.6
260 K, 90165 kPa	1535.6
260 K, 100172 kPa	1576.3
280 K, 1301.6 kPa	836.39
280 K, 2102.4 kPa	848.18
280 K, 3103.2 kPa	862.38
280 K, 4104 kPa	876.04
280 K, 5104.9 kPa	889.2
280 K, 6105.8 kPa	901.91
280 K, 7107.3 kPa	914.23
280 K, 8108.1 kPa	926.15
280 K, 9108.8 kPa	937.72
280 K, 10110 kPa	948.97
280 K, 12611 kPa	975.84
280 K, 15113 kPa	1001.1
280 K, 17613 kPa	1025
280 K, 20117 kPa	1047.8
280 K, 25118 kPa	1090.3
280 K, 30122 kPa	1129.5
280 K, 35126 kPa	1166
280 K, 40129 kPa	1200.2
280 K, 45133 kPa	1232.4
280 K, 50138 kPa	1263.1
280 K, 60144 kPa	1320
280 K, 70151 kPa	1372.2
280 K, 80157 kPa	1420.7
280 K, 90164 kPa	1466.1
280 K, 100171 kPa	1508.7
299.99 K, 1403.2 kPa	696.05
299.99 K, 2103.7 kPa	710.03
299.99 K, 4105.1 kPa	746.66
299.99 K, 8107.8 kPa	809.26
299.99 K, 15113 kPa	898.02
299.99 K, 20116 kPa	951.33
299.99 K, 25119 kPa	998.93
299.99 K, 25120 kPa	998.96
299.99 K, 30123 kPa	1042.3
299.99 K, 35126 kPa	1082.1
299.99 K, 40130 kPa	1119.3
299.99 K, 50137 kPa	1186.8
299.99 K, 60144 kPa	1247.4
299.99 K, 70151 kPa	1302.7
299.99 K, 80156 kPa	1353.6
299.99 K, 80158 kPa	1353.7
299.99 K, 90164 kPa	1401.1
299.99 K, 100172 kPa	1445.6
300 K, 1402.2 kPa	696.01
300 K, 1402.5 kPa	696
300 K, 1402.7 kPa	696.01
300 K, 2102.7 kPa	709.98
300 K, 2104.1 kPa	710.04
300 K, 3103.2 kPa	728.84
300 K, 3104.7 kPa	728.9
300 K, 3105.1 kPa	728.91
300 K, 4103.8 kPa	746.6
300 K, 4105.8 kPa	746.67
300 K, 5104.2 kPa	763.4
300 K, 6104.7 kPa	779.36
300 K, 6106.5 kPa	779.42
300 K, 7107.2 kPa	794.65
300 K, 8106 kPa	809.21
300 K, 8107.2 kPa	809.25
300 K, 9106.7 kPa	823.24
300 K, 10107 kPa	836.75
300 K, 10109 kPa	836.79
300 K, 12611 kPa	868.58
300 K, 15113 kPa	898
300 K, 17613 kPa	925.47
300 K, 20114 kPa	951.3
300 K, 25118 kPa	998.93
300 K, 30121 kPa	1042.3
300 K, 35124 kPa	1082.1
300 K, 40128 kPa	1119.2
300 K, 45131 kPa	1154
300 K, 50135 kPa	1186.8
300 K, 60142 kPa	1247.4
300 K, 70149 kPa	1302.6
300 K, 90163 kPa	1401.1
300 K, 100170 kPa	1445.6
319.99 K, 22616 kPa	886.71
319.99 K, 100172 kPa	1386.9
320 K, 2104.4 kPa	556.2
320 K, 3105.2 kPa	584.43
320 K, 4105.8 kPa	609.63
320 K, 5106.4 kPa	632.55
320 K, 6107.1 kPa	653.68
320 K, 7107.8 kPa	673.35
320 K, 8108.4 kPa	691.81
320 K, 9108.4 kPa	709.24
320 K, 10109 kPa	725.77
320 K, 12611 kPa	763.9
320 K, 15112 kPa	798.37
320 K, 17614 kPa	829.99
320 K, 20116 kPa	859.32
320 K, 25119 kPa	912.52
320 K, 30123 kPa	960.18
320 K, 35126 kPa	1003.6
320 K, 40130 kPa	1043.6
320 K, 45133 kPa	1080.8
320 K, 50136 kPa	1115.7
320 K, 60143 kPa	1179.8
320 K, 70150 kPa	1237.9
320 K, 80157 kPa	1291.2
320 K, 90164 kPa	1340.7
340.01 K, 4105 kPa	453.16
340.01 K, 5105.7 kPa	489.49
340.01 K, 6106.3 kPa	520.38
340.01 K, 7107 kPa	547.59
340.01 K, 8107.7 kPa	572.12
340.01 K, 9108.2 kPa	594.57
340.01 K, 10109 kPa	615.36
340.01 K, 12611 kPa	661.83
340.01 K, 15113 kPa	702.48
340.01 K, 17615 kPa	738.94
340.01 K, 20117 kPa	772.18
340.01 K, 25119 kPa	831.39
340.01 K, 30122 kPa	883.53
340.01 K, 35126 kPa	930.45
340.01 K, 40129 kPa	973.32
340.01 K, 45133 kPa	1012.9
340.01 K, 50136 kPa	1049.9
340.01 K, 60143 kPa	1117.3
340.01 K, 70150 kPa	1178
340.02 K, 80157 kPa	1233.5
340.02 K, 90164 kPa	1284.8
340.02 K, 100171 kPa	1332.5
360 K, 5105 kPa	311.26
360 K, 6105.7 kPa	370.15
360 K, 7106.5 kPa	413.28
360 K, 8107.1 kPa	448.54
360 K, 9107.8 kPa	478.92
360 K, 10109 kPa	505.89
360 K, 12610 kPa	563.32
360 K, 15112 kPa	611.37
360 K, 17614 kPa	653.26
360 K, 20116 kPa	690.72
360 K, 25119 kPa	756.2
360 K, 30122 kPa	812.8
360 K, 35127 kPa	863.13
360 K, 40130 kPa	908.71
360 K, 45134 kPa	950.58
360 K, 50137 kPa	989.41
360 K, 60144 kPa	1059.9
360 K, 70151 kPa	1123
360 K, 80158 kPa	1180.4
360 K, 90165 kPa	1233.3
360 K, 100172 kPa	1282.4
380 K, 7106.1 kPa	268.33
380 K, 7357.4 kPa	283.48
380 K, 7606.5 kPa	297.29
380 K, 7858.2 kPa	310.32
380 K, 8106.9 kPa	322.34
380 K, 9107.6 kPa	364.56
380 K, 10108 kPa	399.84
380 K, 12610 kPa	470.55
380 K, 15112 kPa	526.72
380 K, 17613 kPa	574.26
380 K, 20116 kPa	615.93
380 K, 25119 kPa	687.43
380 K, 30123 kPa	748.22
380 K, 35126 kPa	801.68
380 K, 40130 kPa	849.74
380 K, 45134 kPa	893.62
380 K, 50137 kPa	934.15
380 K, 60144 kPa	1007.4
380 K, 70152 kPa	1072.6
380 K, 80159 kPa	1131.7
380 K, 90166 kPa	1186
380 K, 100173 kPa	1236.3
400 K, 10108 kPa	309.3
400 K, 11109 kPa	343.84
400 K, 12110 kPa	374.75
400 K, 13110 kPa	402.68
400 K, 14111 kPa	428.21
400 K, 15111 kPa	451.76
400 K, 16111 kPa	473.63
400 K, 17110 kPa	494.15
400 K, 18112 kPa	513.48
400 K, 19112 kPa	531.79
400 K, 20113 kPa	549.2
400 K, 22615 kPa	589.41
400 K, 25117 kPa	625.81
400 K, 30121 kPa	690.16
400 K, 35124 kPa	746.29
400 K, 40128 kPa	796.45
400 K, 45132 kPa	842.05
400 K, 50135 kPa	884.02
400 K, 60142 kPa	959.55
400.01 K, 70148 kPa	1026.5
400.01 K, 80156 kPa	1087
400.01 K, 90163 kPa	1142.6
400.01 K, 100170 kPa	1194
420 K, 12107 kPa	315
420 K, 13108 kPa	341.84
420 K, 14109 kPa	367.29
420 K, 15110 kPa	391.25
420 K, 16110 kPa	413.79
420 K, 17113 kPa	435.07
420 K, 18114 kPa	455.17
420 K, 19115 kPa	474.24
420 K, 20116 kPa	492.39
420 K, 22618 kPa	534.32
420 K, 25120 kPa	572.24
420 K, 30123 kPa	639.09
420 K, 35127 kPa	697.19
420 K, 40130 kPa	748.95
420 K, 45134 kPa	795.89
420 K, 50138 kPa	838.99
420 K, 60145 kPa	916.37
420 K, 70152 kPa	984.82
420 K, 80159 kPa	1046.6
